Source: ChEMBL document CHEMBL4699602, “Stapled and Xenopus Glucagon-Like Peptide 1 (GLP-1)-Based Dual GLP-1/Gastrin Receptor Agonists with Improved Metabolic Benefits in Rodent Models of Obesity and Diabetes” (J Med Chem, 2020)
Where a SMILES comes first, the peptide text is derived from it.

Assays:
[1] = target: T1, Glucagon-like peptide 1 receptor (Homo sapiens, UniProt P43220); assay: Agonist activity at human GLP-1R expressed in HEK293 cells assessed as stimulation of cAMP accumulation incubated for 20 mins in presence of 0% HSA; format: functional, cell-based
T1 sequence (P43220 whole entry): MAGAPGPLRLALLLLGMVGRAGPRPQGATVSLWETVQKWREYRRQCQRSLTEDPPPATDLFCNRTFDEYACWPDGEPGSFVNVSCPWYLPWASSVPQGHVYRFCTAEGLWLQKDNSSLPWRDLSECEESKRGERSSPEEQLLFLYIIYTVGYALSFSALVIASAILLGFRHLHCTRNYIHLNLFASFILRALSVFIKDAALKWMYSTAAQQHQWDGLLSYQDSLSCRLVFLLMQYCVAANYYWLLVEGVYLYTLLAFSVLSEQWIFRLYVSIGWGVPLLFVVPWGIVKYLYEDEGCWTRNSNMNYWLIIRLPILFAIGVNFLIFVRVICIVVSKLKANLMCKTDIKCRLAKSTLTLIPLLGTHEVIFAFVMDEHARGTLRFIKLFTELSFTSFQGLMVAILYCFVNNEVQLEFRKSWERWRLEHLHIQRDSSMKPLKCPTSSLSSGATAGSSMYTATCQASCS

[2] = target: T1, Glucagon-like peptide 1 receptor; assay: Ratio of EC50 for agonist activity at human GLP-1R expressed in HEK293 cells in presence of 4.4% HSA to EC50 for agonist activity at human GLP-1R expressed in HEK293 cells in presence of 0% HSA; format: cell-based
[3] = target: T1, Glucagon-like peptide 1 receptor; assay: Agonist activity at human GLP-1R expressed in HEK293 cells assessed as stimulation of cAMP accumulation incubated for 20 mins in presence of 4.4% HSA; format: functional, cell-based

EC50 [1]	Ratio EC50 [2]	EC50 [3]	SMILES
0.098 nM	18.4	1.8 nM	CCCCCCCCCCCCCCCC(=O)NCCCCCCNC(=O)C1CCCCNC(=O)CCN2C(=O)CC(SC[C@H](NC(=O)[C@H](Cc3ccc(O)cc3)NC(=O)[C@H](CCC(=O)O)NC(=O)[C@@H](NC(=O)[C@@H](NC(=O)[C@H](CC(=O)O)NC(=O)[C@H](CC(N)=O)NC(=O)[C@@H](NC(=O)[C@H](Cc3ccc(O)cc3)NC(=O)[C@@H](NC(=O)CNC(=O)[C@H](CCC(=O)O)NC(=O)C(C)(C)NC(=O)[C@@H](N)Cc3c[nH]cn3)[C@@H](C)O)[C@@H](C)O)C(C)C)[C@@H](C)O)C(=O)N[C@@H](CCC(=O)O)C(=O)N[C@@H](CCC(=O)O)C(=O)N[C@@H](CCC(=O)O)C(=O)N[C@@H](C)C(=O)N[C@@H](C)C(=O)N[C@@H](CCCCN)C(=O)N[C@H](C(=O)N[C@@H](Cc3ccccc3)C(=O)N[C@H](C(=O)N[C@@H](CCC(=O)O)C(=O)N[C@@H](Cc3c[nH]c4ccccc34)C(=O)N[C@@H](CC(C)C)C(=O)N[C@H](C(=O)N[C@@H](CCCCN)C(=O)NCC(=O)N[C@@H](CCCCN)C(N)=O)[C@@H](C)CC)[C@@H](C)CC)CSC3CC(=O)N(CCC(=O)N1)C3=O)C2=O (stereo partly specified) (HELM PEPTIDE1{H.[Aib].E.G.T.Y.T.N.D.V.T.E.Y.C.E.E.E.A.A.K.C.F.I.E.W.L.I.K.G.K.[am]}|CHEM1{[CCCCCCCCCCCCCCCC(=O)NCCCCCCNC(=O)C(CCCCNC(=O)CCN1C(=O)CC([*:1])C1=O)NC(=O)CCN1C(=O)CC([*:2])C1=O]}$PEPTIDE1,CHEM1,14:R3-1:R1|PEPTIDE1,CHEM1,21:R3-1:R2$$$V2.0)
0.16 nM	90.6	14.5 nM	CC[C@H](C)[C@H](NC(=O)[C@H](CC(C)C)NC(=O)[C@H](Cc1c[nH]c2ccccc12)NC(=O)[C@H](CCC(=O)O)NC(=O)[C@@H](NC(=O)[C@H](Cc1ccccc1)NC(=O)[C@@H]1CSC2CC(=O)N(CCC(=O)NC(C(=O)NCCCCCCNC(=O)COCCOCCNC(=O)COCCOCCNC(=O)CCC(NC(=O)CCCCCCCCCCCCCCCCC(=O)O)C(=O)O)CCCCNC(=O)CCN3C(=O)CC(SC[C@H](NC(=O)[C@H](Cc4ccc(O)cc4)NC(=O)[C@H](CCC(=O)O)NC(=O)[C@@H](NC(=O)[C@@H](NC(=O)[C@H](CC(=O)O)NC(=O)[C@H](CC(N)=O)NC(=O)[C@@H](NC(=O)[C@H](Cc4ccc(O)cc4)NC(=O)[C@@H](NC(=O)CNC(=O)[C@H](CCC(=O)O)NC(=O)C(C)(C)NC(=O)[C@@H](N)Cc4c[nH]cn4)[C@@H](C)O)[C@@H](C)O)C(C)C)[C@@H](C)O)C(=O)N[C@@H](CCC(=O)O)C(=O)N[C@@H](CCC(=O)O)C(=O)N[C@@H](CCC(=O)O)C(=O)N[C@@H](C)C(=O)N[C@@H](C)C(=O)N[C@@H](CCCCN)C(=O)N1)C3=O)C2=O)[C@@H](C)CC)C(=O)N[C@@H](CCCCN)C(=O)NCC(=O)N[C@@H](CCCCN)C(N)=O (stereo partly specified) (HELM PEPTIDE1{H.[Aib].E.G.T.Y.T.N.D.V.T.E.Y.C.E.E.E.A.A.K.C.F.I.E.W.L.I.K.G.K.[am]}|CHEM1{[O=C(O)CCCCCCCCCCCCCCCCC(=O)NC(CCC(=O)NCCOCCOCC(=O)NCCOCCOCC(=O)NCCCCCCNC(=O)C(CCCCNC(=O)CCN1C(=O)CC([*:1])C1=O)NC(=O)CCN1C(=O)CC([*:2])C1=O)C(=O)O]}$PEPTIDE1,CHEM1,14:R3-1:R1|PEPTIDE1,CHEM1,21:R3-1:R2$$$V2.0)
